Reference: ChEMBL document CHEMBL1201862, “PubChem BioAssay data set” (2004)
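Growth conditions: 96-well plates. Treatment: test compound, 48 hours, 5 concentrations. Analysis: linear interpolation between bracketing concentrations; unreached endpoints set to highest concentration. GI50 = concentration required for 50% inhibition of growth.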 Activity calls are given as the source filed them. Cut-off read from the data, not from the text of the source: active = GI50 up to about 1.1 µM and inactive = higher.

Tests used:
Test in all cases: NCI tumour cell line growth inhibition, 48 h
M19-MEL = tested on: M19-MEL
RPMI-8226 = tested on: RPMI-8226
OVCAR-5 = tested on: OVCAR-5
SF-295 = tested on: SF-295
U-251 = tested on: U-251
NCI-H460 = tested on: NCI-H460
ACHN = tested on: ACHN
IGROV-1 = tested on: IGROV-1
CCRF-CEM = tested on: CCRF-CEM
HT-29 = tested on: HT-29
RXF 393 = tested on: RXF 393
SNB-75 = tested on: SNB-75
OVCAR-3 = tested on: OVCAR-3
SR = tested on: SR
NCI-H522 = tested on: NCI-H522
NCI-H226 = tested on: NCI-H226
PC-3 = tested on: PC-3
MCF7 = tested on: MCF7
Hs-578T = tested on: Hs-578T
MDA-MB-231 = tested on: MDA-MB-231

With `CCOC(=O)C(Sc1ccccc1)c1c(OC)cc(=O)oc1/C=[N+](/[O-])c1ccc(N(C)C)cc1` (stereo unspecified) the GI50 (M19-MEL) was 19.8 µM (inactive), the GI50 (RPMI-8226) was 19.6 µM (inactive) and the GI50 (OVCAR-5) was 46 µM (inactive). For the same compound, the GI50 (SF-295) was 24.4 µM (inactive), the GI50 (U-251) was 24.7 µM (inactive) and the GI50 (NCI-H460) was 27.9 µM (inactive). For the same compound, the GI50 (ACHN) was > 10 µM (inactive), the GI50 (IGROV-1) was 42.4 µM (inactive) and the GI50 (CCRF-CEM) was 4.52 µM (inactive). For the same compound, the GI50 (HT-29) was 16.3 µM (inactive), the GI50 (RXF 393) was 16.2 µM (inactive) and the GI50 (SNB-75) was 31.3 µM (inactive). For the same compound, the GI50 (OVCAR-3) was 13.2 µM (inactive).
For `C=C1CCC2C(C)(CO)C(O)CCC2(C)C1CC(O)/C(=C/CO)C(=O)O` (stereo unspecified), the GI50 (M19-MEL) was > 100 µM (inactive), the GI50 (SR) was > 100 µM (inactive) and the GI50 (RPMI-8226) was > 100 µM (inactive). For the same compound, the GI50 (OVCAR-5) was > 100 µM (inactive), the GI50 (SF-295) was > 100 µM (inactive) and the GI50 (U-251) was > 100 µM (inactive). For the same compound, the GI50 (NCI-H460) was > 100 µM (inactive), the GI50 (ACHN) was > 100 µM (inactive) and the GI50 (IGROV-1) was > 100 µM (inactive). The GI50 (CCRF-CEM) was > 100 µM (inactive), the GI50 (HT-29) was > 100 µM (inactive) and the GI50 (RXF 393) was > 100 µM (inactive). The GI50 (NCI-H522) was > 100 µM (inactive) and the GI50 (SNB-75) was > 100 µM (inactive).
`CC1=C(C(=O)Nc2ccccc2)C(c2ccccc2Cl)C(C(=O)Nc2ccccc2)=C(C)N1` was tested, and the GI50 (M19-MEL) was 19.8 µM (inactive), the GI50 (SR) was 25.8 µM (inactive) and the GI50 (RPMI-8226) was 19.4 µM (inactive). The GI50 (OVCAR-5) was 24.3 µM (inactive), the GI50 (SF-295) was 25.4 µM (inactive) and the GI50 (U-251) was 19.4 µM (inactive). The GI50 (ACHN) was 30.5 µM (inactive), the GI50 (IGROV-1) was 27.9 µM (inactive) and the GI50 (CCRF-CEM) was 32 µM (inactive). The GI50 (HT-29) was 21 µM (inactive), the GI50 (NCI-H522) was 19.6 µM (inactive) and the GI50 (SNB-75) was 28.1 µM (inactive). For the same compound, the GI50 (OVCAR-3) was 17.6 µM (inactive) and the GI50 (NCI-H226) was 22.2 µM (inactive).
In the case of `Cc1nc2c(=O)n(C)c(=O)nc-2n(-c2ccc(Cl)cc2)c1C`, the GI50 (M19-MEL) is reported as > 100 µM (inactive), the GI50 (OVCAR-5) is reported as > 100 µM (inactive) and the GI50 (SF-295) is reported as > 100 µM (inactive). The GI50 (U-251) was > 100 µM (inactive), the GI50 (NCI-H460) was > 100 µM (inactive) and the GI50 (ACHN) was 58.6 µM (inactive). For the same compound, the GI50 (IGROV-1) was > 100 µM (inactive), the GI50 (CCRF-CEM) was 60.1 µM (inactive) and the GI50 (HT-29) was > 100 µM (inactive). For the same compound, the GI50 (NCI-H522) was > 100 µM (inactive), the GI50 (SNB-75) was > 100 µM (inactive) and the GI50 (OVCAR-3) was > 100 µM (inactive). The GI50 (NCI-H226) was > 100 µM (inactive).
`COc1ccc(C(N)=O)c(OC)c1OCc1ccccc1` was tested, and the GI50 (M19-MEL) was > 100 µM (inactive), the GI50 (RPMI-8226) was > 100 µM (inactive) and the GI50 (OVCAR-5) was > 100 µM (inactive). The GI50 (SF-295) was > 100 µM (inactive), the GI50 (U-251) was > 100 µM (inactive) and the GI50 (NCI-H460) was > 100 µM (inactive). The GI50 (ACHN) was > 100 µM (inactive), the GI50 (IGROV-1) was > 100 µM (inactive) and the GI50 (CCRF-CEM) was > 100 µM (inactive). For the same compound, the GI50 (HT-29) was > 100 µM (inactive), the GI50 (RXF 393) was 0.15 µM (active) and the GI50 (NCI-H522) was 12.4 µM (inactive). For the same compound, the GI50 (SNB-75) was > 100 µM (inactive), the GI50 (OVCAR-3) was > 100 µM (inactive) and the GI50 (NCI-H226) was > 100 µM (inactive).
`C[Si](C)(C)[C@@]1([Se]c2ccccc2)CC[C@@H]1C(=O)c1ccccc1` was tested, and the GI50 (M19-MEL) was 32.5 µM (inactive), the GI50 (RPMI-8226) was 20.1 µM (inactive) and the GI50 (OVCAR-5) was > 100 µM (inactive). The GI50 (SF-295) was 51.3 µM (inactive), the GI50 (U-251) was 83.8 µM (inactive) and the GI50 (NCI-H460) was 98.9 µM (inactive). For the same compound, the GI50 (ACHN) was 54 µM (inactive), the GI50 (IGROV-1) was > 100 µM (inactive) and the GI50 (CCRF-CEM) was 27.7 µM (inactive). The GI50 (HT-29) was 42.3 µM (inactive), the GI50 (RXF 393) was 19 µM (inactive) and the GI50 (NCI-H522) was 23.7 µM (inactive). The GI50 (SNB-75) was 61 µM (inactive), the GI50 (OVCAR-3) was 84.1 µM (inactive) and the GI50 (NCI-H226) was 40.2 µM (inactive).
For `COc1cccc(-n2c3nc(=O)n(C)c(=O)c-3nc3ccccc32)c1`, the GI50 (M19-MEL) was 2.43 µM (inactive), the GI50 (RPMI-8226) was 12.5 µM (inactive) and the GI50 (OVCAR-5) was 19.2 µM (inactive). For the same compound, the GI50 (SF-295) was 13.2 µM (inactive), the GI50 (U-251) was 14.4 µM (inactive) and the GI50 (NCI-H460) was 5.46 µM (inactive). For the same compound, the GI50 (ACHN) was 3.18 µM (inactive), the GI50 (IGROV-1) was 18.7 µM (inactive) and the GI50 (CCRF-CEM) was 19 µM (inactive). For the same compound, the GI50 (HT-29) was 4.55 µM (inactive), the GI50 (NCI-H522) was 29.3 µM (inactive) and the GI50 (SNB-75) was 19.6 µM (inactive). For the same compound, the GI50 (OVCAR-3) was 2.69 µM (inactive) and the GI50 (NCI-H226) was 17.7 µM (inactive).
For `COc1cc(O)c2c(=O)c(OC)c(-c3ccc(OC)c(O)c3)oc2c1` [AYANIN], the GI50 (SR) was 22.1 µM (inactive), the GI50 (RPMI-8226) was 33.1 µM (inactive) and the GI50 (OVCAR-5) was 37.4 µM (inactive). The GI50 (SF-295) was 7.78 µM (inactive), the GI50 (U-251) was > 100 µM (inactive) and the GI50 (PC-3) was 30.8 µM (inactive). For the same compound, the GI50 (NCI-H460) was 14 µM (inactive), the GI50 (ACHN) was 33.1 µM (inactive) and the GI50 (IGROV-1) was 25.4 µM (inactive). The GI50 (CCRF-CEM) was 23.6 µM (inactive), the GI50 (MCF7) was 15.5 µM (inactive) and the GI50 (Hs-578T) was 7.85 µM (inactive). The GI50 (MDA-MB-231) was 14.8 µM (inactive), the GI50 (HT-29) was 79.1 µM (inactive) and the GI50 (RXF 393) was 57.3 µM (inactive). For the same compound, the GI50 (NCI-H522) was 29.1 µM (inactive), the GI50 (SNB-75) was 6.14 µM (inactive) and the GI50 (OVCAR-3) was 63.8 µM (inactive). For the same compound, the GI50 (NCI-H226) was > 100 µM (inactive).
`O=C([O-])Cc1ccccc1.[Na+]` [SODIUM PHENYLACETATE] was tested, and the GI50 (SR) was 200 µM (inactive), the GI50 (RPMI-8226) was 413 µM (inactive) and the GI50 (OVCAR-5) was > 2000 µM (inactive). The GI50 (SF-295) was 843 µM (inactive), the GI50 (U-251) was 729 µM (inactive) and the GI50 (PC-3) was > 2000 µM (inactive). For the same compound, the GI50 (NCI-H460) was 342 µM (inactive), the GI50 (ACHN) was 1180 µM (inactive) and the GI50 (IGROV-1) was 597 µM (inactive). For the same compound, the GI50 (CCRF-CEM) was 671 µM (inactive), the GI50 (MCF7) was > 2000 µM (inactive) and the GI50 (Hs-578T) was 385 µM (inactive). For the same compound, the GI50 (MDA-MB-231) was 174 µM (inactive), the GI50 (HT-29) was 931 µM (inactive) and the GI50 (RXF 393) was 582 µM (inactive). The GI50 (NCI-H522) was 618 µM (inactive), the GI50 (SNB-75) was 776 µM (inactive) and the GI50 (OVCAR-3) was 550 µM (inactive). For the same compound, the GI50 (NCI-H226) was 447 µM (inactive).
